“And” between values parts separate entries of the source, which are not always exact repeats. Equal entries are not always repeated.
Tested on: 885512-296-R-J2-PDC complex spheroid growth, % test/control
Test: Anticancer human tumor 885512-296-R-J2-PDC patient-derived breast carcinoma cell line growth inhibition [Asc]
Conditions: for viability, T/C: stronger effect = lower value
Outline: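 Tumor cells were grown as complex spheroids with human endothelial cells (HUVEC) and human mesenchymal stem cells as stroma. Agents were tested alone and in combination, in half-log steps down from the clinical Cmax, or from 10 microM where Cmax was unknown.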

[1] = curve of first compound, second compound 0.1 µM
[2] = curve of first compound, second compound 0.316 µM
[3] = curve of first compound, second compound 1 µM
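Further: spheroids exposed to compounds for seven days.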
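Wherever viability, T/C is given: 100% = DMSO vehicle control wells.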

O=C(c1cc(Cc2n[nH]c(=O)c3ccccc23)ccc1F)N1CCN(C(=O)C2CC2)CC1 + CCN1C(C(=O)NC23CCC(C(=O)O)(CC2)CC3)C(c2cccc(Cl)c2F)C2(C(=O)Nc3cc(Cl)ccc32)C12CCCCC2
IC50 (curve of first compound, second compound 0.03 µM): 4710 nM
IC50 (curve of first compound, second compound 0.0949 µM): 5650 nM
IC50 (curve of first compound, second compound 0.3 µM): 5140 nM
IC50 (curve of first compound, second compound 0.949 µM): 5090 nM
IC50 (curve of first compound, second compound 3 µM): < 31.6 nM
viability, T/C (second compound 0.03 µM, first compound 0.0316 µM): 80.5%
viability, T/C (second compound 0.03 µM, first compound 0.1 µM): 118%
viability, T/C (second compound 0.03 µM, first compound 0.316 µM): 116%
viability, T/C (second compound 0.03 µM, first compound 1 µM): 92.7%
viability, T/C (second compound 0.03 µM, first compound 3.16 µM): 67.7%
viability, T/C (second compound 0.03 µM, first compound 10 µM): 17.6%
viability, T/C (second compound 0.0949 µM, first compound 0.0316 µM): 98.8%
viability, T/C (second compound 0.0949 µM, first compound 0.1 µM): 116%
viability, T/C (second compound 0.0949 µM, first compound 0.316 µM): 107%
viability, T/C (second compound 0.0949 µM, first compound 1 µM): 90.2%
viability, T/C (second compound 0.0949 µM, first compound 3.16 µM): 79.5%
viability, T/C (second compound 0.0949 µM, first compound 10 µM): 22.9%
viability, T/C (second compound 0.3 µM, first compound 0.0316 µM): 93.3%
viability, T/C (second compound 0.3 µM, first compound 0.1 µM): 97.8%
viability, T/C (second compound 0.3 µM, first compound 0.316 µM): 89.9%
viability, T/C (second compound 0.3 µM, first compound 1 µM): 98.1%
viability, T/C (second compound 0.3 µM, first compound 3.16 µM): 69.5%
viability, T/C (second compound 0.3 µM, first compound 10 µM): 23.6%
viability, T/C (second compound 0.949 µM, first compound 0.0316 µM): 72%
viability, T/C (second compound 0.949 µM, first compound 0.1 µM): 81.1%
viability, T/C (second compound 0.949 µM, first compound 0.316 µM): 76%
viability, T/C (second compound 0.949 µM, first compound 1 µM): 77.1%
viability, T/C (second compound 0.949 µM, first compound 3.16 µM): 66.8%
viability, T/C (second compound 0.949 µM, first compound 10 µM): 25.3%
viability, T/C (second compound 3 µM, first compound 0.0316 µM): 45.1%
viability, T/C (second compound 3 µM, first compound 0.1 µM): 54.7%
viability, T/C (second compound 3 µM, first compound 0.316 µM): 42.6%
viability, T/C (second compound 3 µM, first compound 1 µM): 47.8%
viability, T/C (second compound 3 µM, first compound 3.16 µM): 47.2%
viability, T/C (second compound 3 µM, first compound 10 µM): 23.5%

Cc1nc(N2CCC3(CC2)COC(C)C3N)c(CO)nc1Sc1ccnc(N)c1Cl (centres undefined) + CNC(C)C(=O)NC1CN(S(=O)(=O)c2cccc(S(=O)(=O)N3CCC4CCC(C(=O)NC(c5ccccc5)c5ccccc5)N4C(=O)C(NC(=O)C(C)NC)C3)c2)CCC2CCC(C(=O)NC(c3ccccc3)c3ccccc3)N2C1=O
IC50 (curve of first compound, second compound 0.01 µM): 168 nM
IC50 (curve of first compound, second compound 0.0316 µM): 237 nM
IC50 [1]: 201 nM
IC50 [2]: 277 nM
IC50 [3]: 270 nM
viability, T/C (second compound 0.01 µM, first compound 0.00949 µM): 90.9%
viability, T/C (second compound 0.01 µM, first compound 0.03 µM): 73.2%
viability, T/C (second compound 0.01 µM, first compound 0.0949 µM): 54%
viability, T/C (second compound 0.01 µM, first compound 0.3 µM): 45.3%
viability, T/C (second compound 0.01 µM, first compound 0.949 µM): 43.4%
viability, T/C (second compound 0.01 µM, first compound 3 µM): 38.7%
viability, T/C (second compound 0.0316 µM, first compound 0.00949 µM): 90.1%
viability, T/C (second compound 0.0316 µM, first compound 0.03 µM): 77%
viability, T/C (second compound 0.0316 µM, first compound 0.0949 µM): 59.3%
viability, T/C (second compound 0.0316 µM, first compound 0.3 µM): 47.3%
viability, T/C (second compound 0.0316 µM, first compound 0.949 µM): 43.1%
viability, T/C (second compound 0.0316 µM, first compound 3 µM): 39.5%
viability, T/C (second compound 0.1 µM, first compound 0.00949 µM): 102%
viability, T/C (second compound 0.1 µM, first compound 0.03 µM): 91.7%
viability, T/C (second compound 0.1 µM, first compound 0.0949 µM): 60.1%
viability, T/C (second compound 0.1 µM, first compound 0.3 µM): 46.3%
viability, T/C (second compound 0.1 µM, first compound 0.949 µM): 39.9%
viability, T/C (second compound 0.1 µM, first compound 3 µM): 39.9%
viability, T/C (second compound 0.316 µM, first compound 0.00949 µM): 120%
viability, T/C (second compound 0.316 µM, first compound 0.03 µM): 107%
viability, T/C (second compound 0.316 µM, first compound 0.0949 µM): 70.3%
viability, T/C (second compound 0.316 µM, first compound 0.3 µM): 50.4%
viability, T/C (second compound 0.316 µM, first compound 0.949 µM): 41.8%
viability, T/C (second compound 0.316 µM, first compound 3 µM): 38.9%
viability, T/C (second compound 1 µM, first compound 0.00949 µM): 114%
viability, T/C (second compound 1 µM, first compound 0.03 µM): 112%
viability, T/C (second compound 1 µM, first compound 0.0949 µM): 71.8%
viability, T/C (second compound 1 µM, first compound 0.3 µM): 52.7%
viability, T/C (second compound 1 µM, first compound 0.949 µM): 41.1%
viability, T/C (second compound 1 µM, first compound 3 µM): 38.7%

NC(=O)C(=Cn1cnc(-c2cc(C(F)(F)F)cc(C(F)(F)F)c2)n1)c1cncnc1
viability, T/C (compound 0.000949 µM): 87.5% and 102% and 84.6%
viability, T/C (compound 0.003 µM): 85.7% and 110% and 93.3%
viability, T/C (compound 0.00949 µM): 101% and 108% and 96.6%
viability, T/C (compound 0.03 µM): 74.1% and 79.4% and 91.7%
viability, T/C (compound 0.0949 µM): 8.08% and 8.06% and 10.7%
viability, T/C (compound 0.3 µM): 3% and 0.88% and 1.21%
IC50 (curve of compound): 45.7 nM and 48.2 nM and 54.2 nM

NC1CCC(NC2CC2c2ccccc2)CC1 (centres undefined) + Cc1c(S(C)(=O)=O)c(-c2cc(F)cc(N3CCN(c4ccc(NS(=O)(=O)c5ccc(NC(CCN6CCC(C(=O)OCCCP(=O)(O)O)CC6)CSc6ccccc6)c(S(=O)(=O)C(F)(F)F)c5)cc4)CC3)c2)c(-c2ccc(Cl)cc2)n1C(C)C
IC50 [1]: > 100 nM
IC50 [2]: > 100 nM
IC50 [3]: > 100 nM
IC50 (curve of first compound, second compound 3.16 µM): > 100 nM
IC50 (curve of first compound, second compound 10 µM): > 100 nM
viability, T/C (second compound 0.1 µM, first compound 0.000316 µM): 124%
viability, T/C (second compound 0.1 µM, first compound 0.001 µM): 127%
viability, T/C (second compound 0.1 µM, first compound 0.00316 µM): 122%
viability, T/C (second compound 0.1 µM, first compound 0.01 µM): 123%
viability, T/C (second compound 0.1 µM, first compound 0.0316 µM): 123%
viability, T/C (second compound 0.1 µM, first compound 0.1 µM): 113%
viability, T/C (second compound 0.316 µM, first compound 0.000316 µM): 121%
viability, T/C (second compound 0.316 µM, first compound 0.001 µM): 126%
viability, T/C (second compound 0.316 µM, first compound 0.00316 µM): 118%
viability, T/C (second compound 0.316 µM, first compound 0.01 µM): 108%
viability, T/C (second compound 0.316 µM, first compound 0.0316 µM): 127%
viability, T/C (second compound 0.316 µM, first compound 0.1 µM): 122%
viability, T/C (second compound 1 µM, first compound 0.000316 µM): 109%
viability, T/C (second compound 1 µM, first compound 0.001 µM): 115%
viability, T/C (second compound 1 µM, first compound 0.00316 µM): 122%
viability, T/C (second compound 1 µM, first compound 0.01 µM): 116%
viability, T/C (second compound 1 µM, first compound 0.0316 µM): 123%
viability, T/C (second compound 1 µM, first compound 0.1 µM): 121%
viability, T/C (second compound 3.16 µM, first compound 0.000316 µM): 112%
viability, T/C (second compound 3.16 µM, first compound 0.001 µM): 116%
viability, T/C (second compound 3.16 µM, first compound 0.00316 µM): 116%
viability, T/C (second compound 3.16 µM, first compound 0.01 µM): 111%
viability, T/C (second compound 3.16 µM, first compound 0.0316 µM): 113%
viability, T/C (second compound 3.16 µM, first compound 0.1 µM): 120%
viability, T/C (second compound 10 µM, first compound 0.000316 µM): 122%
viability, T/C (second compound 10 µM, first compound 0.001 µM): 104%
viability, T/C (second compound 10 µM, first compound 0.00316 µM): 99.5%
viability, T/C (second compound 10 µM, first compound 0.01 µM): 121%
viability, T/C (second compound 10 µM, first compound 0.0316 µM): 111%
viability, T/C (second compound 10 µM, first compound 0.1 µM): 118%

C=C(F)C(=O)N1CCN(c2nc(OCC3CCCN3C)nc3c2CCN(c2cccc4cccc(Cl)c24)C3)CC1CC#N (centres undefined)
viability, T/C (compound 0.0316 µM): 81.9% and 107% and 97.2%
viability, T/C (compound 0.1 µM): 97% and 114% and 90.5%
viability, T/C (compound 0.316 µM): 104% and 102% and 94.4%
viability, T/C (compound 1 µM): 97.8% and 113% and 110%
viability, T/C (compound 3.16 µM): 22% and 31.8% and 50.9%
viability, T/C (compound 10 µM): 0.17% and 0.15% and 0.14%
IC50 (curve of compound): 2040 nM and 2410 nM and 3230 nM
